{
  "source": "paper PMC11647681",
  "about": "“Discovery of Non-Covalent Inhibitors for SARS-CoV-2 PLpro: Integrating Virtual Screening, Synthesis, and Experimental Validation” (ACS Medicinal Chemistry Letters, 2024)",
  "origin": "cited, not measured here",
  "tested_on": "SARS-CoV-2, and its variants",
  "parameters": "method as in PMID 38547259",
  "details": "cited from earlier work",
  "data": [
    {"compound": "CCn1ccc(-c2cc(-c3cnn(C)c3)cc([C@@H](C)NC(=O)c3cc(OCCN(C)C)ccc3C)c2)n1", "note": "[Jun12682]", "values": [
      {"measurement": "activity against SARS-CoV-2, and its variants, in vivo", "value": "confirmed"}
    ]}
  ]
}
